ChEMBL document CHEMBL5614413, “Design, synthesis and biological evaluation of amphiphilic benzopyran derivatives as potent antibacterial agents against multidrug-resistant bacteria” (Eur J Med Chem, 2024)
Values after ≈ are worked out from the molar mass of the structure shown. Active and inactive are the calls of the source. No cut-off for these calls is given here.

Columns and labels:
[1] = tested on: Staphylococcus aureus; test: Drug resistance, ratio of MIC for methicillin-resistant Staphylococcus aureus ATCC 43300 after 19 days exposure to MIC for methicillin-resistant Staphylococcus aureus ATCC 43300 during first exposure; assay type: functional; details: time 19 day
[2] = tested on: Cell membrane; test: Disruption of cell membrane in methicilin-resistant Staphylococcus aureus ATCC 43300 assessed as appearance of collapsed cell membrane by scanning electron microscopic analysis; assay type: cell membranes
[3] = tested on: Staphylococcus aureus; test: Selectivity ratio of MBC for bactericidal activity against methicillin-resistant Staphylococcus aureus ATCC 43300 in presence of 50% human blood to MBC for bactericidal activity against methicillin-resistant Staphylococcus aureus ATCC 43300; assay type: functional
[4] = tested on: Staphylococcus aureus; test: Antibacterial activity against penicillin-resistant Staphylococcus aureus ATCC 31007; assay type: functional
[5] = tested on: Staphylococcus aureus; test: Disruption of preformed biofilm in methicillin-resistant Staphylococcus aureus ATCC 43300 assessed as eradication of biofilm at 8 microg/ml by crystal violet staining based analysis relative to control; assay type: functional; details: dose 8 µg/ml
[6] = tested on: Staphylococcus aureus; test: Antibacterial activity against methicillin-resistant Staphylococcus aureus ATCC 43300; assay type: functional
[7] = tested on: Staphylococcus aureus; test: Inhibition of biofilm formation in methicillin-resistant Staphylococcus aureus ATCC 43300 at 2 microg/ml relative to control; assay type: functional
[8] = tested on: Staphylococcus aureus; test: Drug resistance, ratio of MIC for methicillin-resistant Staphylococcus aureus ATCC 43300 after 20 passages to MIC for methicillin-resistant Staphylococcus aureus ATCC 43300 during first exposure; assay type: functional
[9] = tested on: Staphylococcus epidermidis; test: Antibacterial activity erythromycin-susceptible Staphylococcus epidermidis ATCC 12228; assay type: functional
[10] = tested on: Staphylococcus aureus; test: Inhibition of biofilm formation in methicillin-resistant Staphylococcus aureus ATCC 43300 at 8 microg/ml relative to control; assay type: functional
[11] = tested on: Cell membrane; test: Disruption of cell membrane integrity in methicillin-resistant Staphylococcus aureus ATCC 43300 assessed as appearance of red fluorescence by DAPI/PI staning based microscopic analysis; assay type: cell membranes
[12] = tested on: Staphylococcus aureus; test: Antibacterial activity against methicillin-resistant Staphylococcus aureus ATCC 43300 at 1/2 times of MIC measured after 20 passage; assay type: functional, organism-based
[13] = tested on: Staphylococcus aureus; test: Bactericidal activity against methicillin-resistant Staphylococcus aureus ATCC 43300 assessed as reduction in bacterial growth; assay type: functional, organism-based
[14] = tested on: Staphylococcus aureus; test: Bactericidal activity against methicillin-resistant Staphylococcus aureus ATCC 43300 by Mueller Hinton broth based assay; assay type: functional; details: time <= 6 hrs
[15] = tested on: Staphylococcus aureus; test: Bactericidal activity against methicillin-resistant Staphylococcus aureus ATCC 43300 assessed as bacterial eradication at 16 times of MIC measured at 8 hrs by time kill kinetics analysis relative to control; assay type: functional
[16] = tested on: Staphylococcus aureus; test: Bacteriostatic activity against methicillin-resistant Staphylococcus aureus ATCC 43300 assessed as inhibition of bacterial growth at 2 times of MIC measured after 24 hrs by time-kill kinetic analysis; assay type: functional, organism-based
[17] = tested on: Staphylococcus aureus; test: Bactericidal activity against methicillin-resistant Staphylococcus aureus ATCC 43300 in presence of 50% human blood by Mueller Hinton broth based assay; assay type: functional; details: ATCC 43300, Blood, time <= 6 hrs
[18] = tested on: Enterococcus faecalis; test: Antibacterial activity against vancomycin-susceptible Enterococcus faecalis ATCC 29212; assay type: functional
[19] = tested on: Cell membrane; test: Disruption of cell membrane integrity in methicillin-resistant Staphylococcus aureus ATCC 43300 assessed as appearance of blue fluorescence by DAPI/PI staining based microscopic analysis; assay type: cell membranes
[20] = tested on: Cell membrane; test: Disruption of cell membrane in methicilin-resistant Staphylococcus aureus ATCC 43300 assessed as appearance of wrinkled cell membrane by scanning electron microscopic analysis; assay type: cell membranes
[21] = tested on: Bacillus subtilis; test: Antibacterial activity against penicillin-susceptible Bacillus subtilis ATCC 9372; assay type: functional
[22] = tested on: Cell membrane; test: Induction of cytoplasmic membrane depolarization in methicillin-resistant Staphylococcus aureus ATCC 43300 assessed as increase in fluorescence intensity by DiSC3(5) dye-based fluorescence assay; assay type: cell membranes
[23] = Hemolytic activity in sheep RBC; assay type: toxicity, cell-based, Ovis aries, Erythrocyte; details: sheep red blood cells (erythrocytes)
[24] = tested on: Staphylococcus aureus; test: Bactericidal activity against methicillin-resistant Staphylococcus aureus ATCC 43300 in presence of 50% human plasma by Mueller Hinton broth based assay; assay type: functional
[25] = tested on: Escherichia coli; test: Antibacterial activity against penicillin-susceptible Escherichia coli ATCC 25922; assay type: functional
[26] = tested on: Klebsiella pneumoniae; test: Antibacterial activity against Klebsiella pneumoniae ATCC 10031; assay type: functional
[27] = Selectivity index, ratio of HC50 for hemolytic activity in sheep RBC to MIC for antibacterial activity against methicillin-resistant Staphylococcus aureus ATCC 43300; assay type: toxicity; details: sheep red blood cells (erythrocytes), read-out: Selectivity Index
[28] = tested on: Staphylococcus aureus; test: Selectivity ratio of MBC for bactericidal activity against methicillin-resistant Staphylococcus aureus ATCC 43300 in presence of 50% human serum to MBC for bactericidal activity against methicillin-resistant Staphylococcus aureus ATCC 43300; assay type: functional
[29] = tested on: Staphylococcus aureus; test: Bactericidal activity against methicillin-resistant Staphylococcus aureus ATCC 43300 in presence of 50% human serum by Mueller Hinton broth based assay; assay type: functional
[30] = tested on: Cell membrane; test: Induction of cytoplasmic membrane depolarization in methicillin-resistant Staphylococcus aureus ATCC 43300 assessed as increase in fluorescence intensity at 2 microg/ml by DiSC3(5) dye-based fluorescence assay; assay type: cell membranes; details: dose 2.0 µg/ml
[31] = tested on: Staphylococcus aureus; test: Disruption of preformed biofilm in methicillin-resistant Staphylococcus aureus ATCC 43300 assessed as eradication of biofilm at 64 microg/ml by crystal violet staining based analysis relative to control; assay type: functional; details: dose 64 µg/ml
[32] = tested on: Staphylococcus aureus; test: Induction of ROS production in methicillin-resistant Staphylococcus aureus ATCC 43300 assessed as fold increase in ROS level at 32 microg/ml by DCFH-DA staining based analysis; details: dose 32 µg/ml
[33] = tested on: Staphylococcus aureus; test: Bacteriostatic activity against methicillin-resistant Staphylococcus aureus ATCC 43300 assessed as inhibition of bacterial growth at 1 times of MIC measured after 24 hrs by time-kill kinetic analysis; assay type: functional, organism-based
[34] = tested on: Staphylococcus aureus; test: Selectivity ratio of MBC for bactericidal activity against methicillin-resistant Staphylococcus aureus ATCC 43300 preincubated with 50% human plasma upto 6 hrs to MBC for bactericidal activity against methicillin-resistant Staphylococcus aureus ATCC 43300; assay type: functional
[35] = tested on: Cell membrane; test: Induction of cell membrane disruption in methicillin-resistant Staphylococcus aureus ATCC 43300 assessed as increase in protein leakage; assay type: cell membranes
[36] = tested on: Cell membrane; test: Induction of cell membrane disruption in methicillin-resistant Staphylococcus aureus ATCC 43300 assessed as increase in DNA leakage; assay type: cell membranes
[37] = tested on: Staphylococcus aureus; test: Disruption of preformed biofilm in methicillin-resistant Staphylococcus aureus ATCC 43300 assessed as eradication of biofilm by crystal violet staining method; assay type: functional, organism-based; details: dose 2-64 µg/ml
[38] = tested on: Staphylococcus aureus; test: Bactericidal activity against methicillin-resistant Staphylococcus aureus ATCC 43300 assessed as log reduction in bacterial growth at 16 times of MIC measured after 4 hrs by time killing analysis; assay type: functional
[39] = tested on: Staphylococcus aureus; test: Antibacterial activity against erythromycin-susceptible Staphylococcus aureus ATCC 25923; assay type: functional
[40] = tested on: Staphylococcus aureus; test: Inhibition of biofilm formation in methicillin-resistant Staphylococcus aureus ATCC 43300; assay type: functional, organism-based; details: dose 2-32 µg/ml
[41] = tested on: Pseudomonas aeruginosa; test: Antibacterial activity against penicillin-susceptible Pseudomonas aeruginosa ATCC 27853; assay type: functional
[42] = tested on: Staphylococcus aureus; test: Inhibition of biofilm formation in methicillin-resistant Staphylococcus aureus ATCC 43300 at 16 microg/ml relative to control; assay type: functional
[43] = tested on: Cell membrane; test: Disruption of cell membrane in methicillin-resistant Staphylococcus aureus ATCC 43300 assessed as appearance of broken surface by scanning electron microscopic analysis; assay type: cell membranes
[44] = tested on: Cell membrane; test: Induction of cytoplasmic membrane permeabilization in methicillin-resistant Staphylococcus aureus ATCC 43300 assessed as increase fluorescence intensity at 16 microg/ml by PI staining based fluorescence analysis; assay type: cell membranes; details: dose 16.0 µg/ml
[45] = tested on: Acinetobacter baumannii; test: Antibacterial activity against Acinetobacter baumannii ATCC 19606; assay type: functional

CCn1cc(C(=O)O)c(=O)c2cc(F)c(N3CCNCC3)cc21 [NORFLOXACIN]
Ratio [1]: 512

CCN(CC)CCCNCCCOc1ccc(/C=C/C(=O)c2ccc3c(c2OC)C=CC(C)(CCC=C(C)C)O3)cc1 (stereo not given)
Activity [2]: Active
selectivity ratio [3]: 2
MIC [4]: 1 µg/mL (≈ 1.74 µM)
Activity [5]: 19.12%
MIC [6]: 2 µg/mL (≈ 3.48 µM)
inhibition at 2 µg/mL [7]: 21.2%
Ratio [8]: 2
MIC [9]: 1 µg/mL (≈ 1.74 µM)
inhibition at 8 µg/mL [10]: 91.6%
Activity [11]: Active
Activity [12]: Active
Activity [13]: Dose-Dependent Effect
MBC [14]: 32 µg/mL (≈ 55.7 µM)
Activity [15]: 100%
Activity [16]: Active
MBC [17]: 64 µg/mL
MIC [18]: 2 µg/mL (≈ 3.48 µM)
Activity [19]: Active
Activity [20]: Active
MIC [21]: 1 µg/mL (≈ 1.74 µM)
Activity [22]: Dose-Dependent Effect
HC50 [23]: 270 µg/mL
MBC [24]: 32 µg/mL
MIC [25]: 2 µg/mL (≈ 3.48 µM)
MIC [26]: 4 µg/mL (≈ 6.96 µM)
selectivity ratio [27]: 135
selectivity ratio [28]: 2
MBC [29]: 32 µg/mL
Activity [30]: inactive
Activity [31]: >40%
fold change (FC) [32]: 14
Activity [33]: Active
selectivity ratio [34]: <2
Activity [35]: Active
Activity [36]: Active
Activity [37]: Dose-Dependent Effect
log(activity) [38]: 6
MIC [39]: 2 µg/mL (≈ 3.48 µM)
inhibition [40]: Dose-Dependent Effect
MIC [41]: 64 µg/mL (≈ 111 µM)
inhibition at 16 µg/mL [42]: > 92%
Activity [43]: Active
Activity [44]: Active
MIC [45]: 8 µg/mL (≈ 13.9 µM)
